Measured values: patent US20220023533A1, “SUBCUTANEOUS DELIVERY OF HIGH CONCENTRATION FORMULATIONS” (JAZZ PHRMACETICALS IRELAND LIMITED, priority 2018, published 2022)

Key:
[1] = cited from earlier work; for pKa2: α-ammonium ion; for pKa1: α-carboxyl group; for pKa3: side chain group
[2] = Viscosity of defibrotide formulations with various buffers and excipients; format: physicochemical
Method: (§1) It is important for pharmaceutical preparations for oral or parenteral administration to be of low-viscosity and/or isotonic. In order to identify buffers or excipients that may lower the viscosity and/or osmolality of defibrotide formulations, a wide-panel screening of various buffers and excipients (including GRAS excipients) was performed using a 200 mg/mL defibrotide formulation.

[3] = Osmolality of defibrotide formulations with various buffers and excipients; format: physicochemical
Method: as §1

Compound | pI [1] | pKa2 [1] | pKa1 [1] | Effect of increasing the defibrotide concentration in the formulation on viscosity [2] | Effect of increasing the defibrotide concentration in the formulation on osmolality [3] | pKa3 [1] | pKa value ([1]; buffer or excipient)
N[C@@H](Cc1ccc(O)cc1)C(=O)O [Tyrosine] | 5.66 | – | – | – | – | – | –
N[C@@H](CO)C(=O)O [Serine] | 5.68 | 9.15 | – | – | – | – | –
NC(=O)C[C@H](N)C(=O)O [Asparagine] | 5.41 | 8.80 | 2.02 | – | – | – | –
Defibrotide | – | – | – | increase | increase | – | –
N[C@@H](CS)C(=O)O [Cysteine] | 5.07 | 8.18 | 1.96 | – | – | – | –
CC(C)[C@H](N)C(=O)O [Valine] | 5.96 | 9.62 | 2.32 | – | – | – | –
N[C@@H](Cc1c[nH]c2ccccc12)C(=O)O [Tryptophan] | – | 9.39 | 2.83 | – | – | – | –
CC[C@H](C)[C@H](N)C(=O)O [Isoleucine] | 6.02 | 9.60 | 2.36 | – | – | – | –
O=C(O)[C@@H]1CCCN1 [Proline] | 6.30 | 10.6 | 1.99 | – | – | – | –
N[C@@H](Cc1ccccc1)C(=O)O [Phenylalanine] | 5.48 | 9.13 | 1.83 | – | – | – | –
C[C@@H](O)[C@H](N)C(=O)O [Threonine] | 5.60 | 9.10 | 2.09 | – | – | – | –
CSCC[C@H](N)C(=O)O [Methionine] | 5.74 | 9.21 | 2.28 | – | – | – | –
NCCCC[C@H](N)C(=O)O [Lysine] | 9.74 | 8.95 | 2.18 | – | – | 10.53 | –
C[C@H](N)C(=O)O [Alanine] | 6.00 | 9.69 | 2.34 | – | – | – | –
O=S(=O)(O)CCN1CCN(CCO)CC1 [HEPES buffer] | – | – | – | – | – | – | 7.564
N=C(N)NCCC[C@H](N)C(=O)O [Arginine] | 10.76 | 9.04 | 2.17 | – | – | 12.48 | –
